From PMC12748989 (Nature Communications, 2025)

Experiments:
[1] = test system: PBMC; conditions: 12.5 µM
[2] = test system: MDA-MB-231 cells

Structure (SMILES) | Average (percentage cell inhibition), Mastoparan PBMC [1] | Average (percentage cell inhibition), Dmastoparan MDA-MB231 12.5uM [2]
CC[C@H](C)[C@H](NC(=O)[C@H](CCCCN)NC(=O)[C@H](CCCCN)NC(=O)[C@H](C)NC(=O)[C@H](CC(C)C)NC(=O)[C@H](C)NC(=O)[C@H](C)NC(=O)[C@H](CC(C)C)NC(=O)[C@H](C)NC(=O)[C@H](CCCCN)NC(=O)[C@H](CC(C)C)NC(=O)[C@H](CC(N)=O)NC(=O)[C@@H](N)CCC(=O)O)C(=O)N[C@@H](CC(C)C)C(N)=O [E1] | 8.369% | 25.5598%
CC[C@H](C)[C@H](N)C(=O)N[C@@H](CC(N)=O)C(=O)N[C@@H](CC(C)C)C(=O)N[C@@H](CCCCN)C(=O)N[C@@H](C)C(=O)N[C@@H](CC(C)C)C(=O)N[C@@H](C)C(=O)N[C@@H](C)C(=O)N[C@@H](CO)C(=O)N[C@@H](C)C(=O)N[C@@H](CCCCN)C(=O)N[C@@H](CCCCN)C(=O)N[C@H](C(=O)N[C@@H](CC(C)C)C(N)=O)[C@@H](C)CC [S9] | -4.8979% | 27.2293%
CC[C@H](C)[C@H](N)C(=O)N[C@@H](CC(N)=O)C(=O)N[C@@H](CC(C)C)C(=O)N[C@@H](CCCCN)C(=O)N[C@@H](C)C(=O)N[C@@H](CC(C)C)C(=O)N[C@@H](CCCNC(=N)N)C(=O)N[C@@H](C)C(=O)N[C@@H](CC(C)C)C(=O)N[C@@H](C)C(=O)N[C@@H](CCCCN)C(=O)N[C@@H](CCCCN)C(=O)N[C@H](C(=O)N[C@@H](CC(C)C)C(N)=O)[C@@H](C)CC [R7] | 3.182% | 35.9182%
CC[C@H](C)[C@H](N)C(=O)N[C@@H](CC(N)=O)C(=O)N[C@@H](CC(C)C)C(=O)N[C@@H](CCCCN)C(=O)N[C@@H](C)C(=O)N[C@@H](CC(C)C)C(=O)N[C@@H](C)C(=O)N[C@@H](C)C(=O)N[C@@H](CC(C)C)C(=O)N[C@@H](C)C(=O)N[C@@H](CCCCN)C(=O)N[C@@H](CCCCN)C(=O)N[C@H](C(=O)N[C@@H](Cc1c[nH]cn1)C(N)=O)[C@@H](C)CC [H14] | -11.4515% | 14.7055%
CC[C@H](C)[C@H](N)C(=O)N[C@@H](CC(N)=O)C(=O)N[C@@H](CC(C)C)C(=O)N[C@@H](CCCCN)C(=O)N[C@@H](C)C(=O)N[C@@H](CC(C)C)C(=O)N[C@@H](CCC(N)=O)C(=O)N[C@@H](C)C(=O)N[C@@H](CC(C)C)C(=O)N[C@@H](C)C(=O)N[C@@H](CCCCN)C(=O)N[C@@H](CCCCN)C(=O)N[C@H](C(=O)N[C@@H](CC(C)C)C(N)=O)[C@@H](C)CC [Q7] | 9.246% | 23.653%
CC[C@H](C)[C@H](N)C(=O)N[C@@H](CC(N)=O)C(=O)N[C@@H](CC(C)C)C(=O)N[C@@H](CCCCN)C(=O)N[C@@H](C)C(=O)N[C@@H](CC(C)C)C(=O)N[C@@H](C)C(=O)N[C@@H](C)C(=O)N[C@@H](CC(C)C)C(=O)N[C@@H](C)C(=O)N[C@@H](CC(C)C)C(=O)N[C@@H](CCCCN)C(=O)N[C@H](C(=O)N[C@@H](CC(C)C)C(N)=O)[C@@H](C)CC [L11] | 23.4198% | 59.9826%
CC[C@H](C)[C@H](N)C(=O)N[C@@H](CC(N)=O)C(=O)N[C@@H](CC(C)C)C(=O)N[C@@H](CCCCN)C(=O)N[C@@H](C)C(=O)N[C@@H](CC(C)C)C(=O)N[C@@H](C)C(=O)N[C@@H](C)C(=O)N[C@@H](CC(C)C)C(=O)N[C@@H](C)C(=O)N[C@@H](CCCCN)C(=O)N[C@@H](CC(N)=O)C(=O)N[C@H](C(=O)N[C@@H](CC(C)C)C(N)=O)[C@@H](C)CC [N12] | 5.917% | 52.6491%
CC[C@H](C)[C@H](N)C(=O)N[C@@H](CC(N)=O)C(=O)N[C@@H](CC(C)C)C(=O)N[C@@H](CCCCN)C(=O)NCC(=O)N[C@@H](CC(C)C)C(=O)N[C@@H](C)C(=O)N[C@@H](C)C(=O)N[C@@H](CC(C)C)C(=O)N[C@@H](C)C(=O)N[C@@H](CCCCN)C(=O)N[C@@H](CCCCN)C(=O)N[C@H](C(=O)N[C@@H](CC(C)C)C(N)=O)[C@@H](C)CC [G5] | 4.313% | 39.6978%
CC[C@H](C)[C@H](N)C(=O)N[C@@H](CC(N)=O)C(=O)N[C@@H](CC(C)C)C(=O)N[C@@H](CCCCN)C(=O)N[C@@H](C)C(=O)N[C@@H](CC(C)C)C(=O)N[C@@H](C)C(=O)N[C@@H](C)C(=O)N[C@@H](CC(C)C)C(=O)N[C@@H](C)C(=O)N[C@@H](CO)C(=O)N[C@@H](CCCCN)C(=O)N[C@H](C(=O)N[C@@H](CC(C)C)C(N)=O)[C@@H](C)CC [S11] | 3.714% | 28.2862%
CC[C@H](C)[C@H](N)C(=O)N[C@@H](CC(N)=O)C(=O)N[C@@H](CC(C)C)C(=O)N[C@@H](CCCCN)C(=O)N[C@@H](C)C(=O)N1CCC[C@H]1C(=O)N[C@@H](C)C(=O)N[C@@H](C)C(=O)N[C@@H](CC(C)C)C(=O)N[C@@H](C)C(=O)N[C@@H](CCCCN)C(=O)N[C@@H](CCCCN)C(=O)N[C@H](C(=O)N[C@@H](CC(C)C)C(N)=O)[C@@H](C)CC [P6] | -8.854% | -16.4349%
CC[C@H](C)[C@H](N)C(=O)N[C@@H](CC(N)=O)C(=O)N[C@@H](CC(C)C)C(=O)N[C@@H](CCCCN)C(=O)N[C@@H](C)C(=O)N[C@@H](C)C(=O)N[C@@H](C)C(=O)N[C@@H](C)C(=O)N[C@@H](CC(C)C)C(=O)N[C@@H](C)C(=O)N[C@@H](CCCCN)C(=O)N[C@@H](CCCCN)C(=O)N[C@H](C(=O)N[C@@H](CC(C)C)C(N)=O)[C@@H](C)CC [A6] | -1.6231% | 16.1268%
CC[C@H](C)[C@H](N)C(=O)N[C@@H](CC(N)=O)C(=O)N[C@@H](CC(C)C)C(=O)N[C@@H](CCCCN)C(=O)N[C@@H](C)C(=O)N[C@H](C(=O)N[C@@H](C)C(=O)N[C@@H](C)C(=O)N[C@@H](CC(C)C)C(=O)N[C@@H](C)C(=O)N[C@@H](CCCCN)C(=O)N[C@@H](CCCCN)C(=O)N[C@H](C(=O)N[C@@H](CC(C)C)C(N)=O)[C@@H](C)CC)[C@@H](C)CC [I6] | 13.3589% | 31.3138%
CC[C@H](C)[C@H](N)C(=O)N[C@@H](CC(N)=O)C(=O)N[C@@H](CC(C)C)C(=O)N[C@@H](CCCCN)C(=O)N[C@@H](C)C(=O)N[C@@H](CC(C)C)C(=O)N[C@@H](C)C(=O)N[C@@H](C)C(=O)N[C@@H](CC(C)C)C(=O)N[C@@H](Cc1c[nH]c2ccccc12)C(=O)N[C@@H](CCCCN)C(=O)N[C@@H](CCCCN)C(=O)N[C@H](C(=O)N[C@@H](CC(C)C)C(N)=O)[C@@H](C)CC [W10] | 15.3863% | 49.5675%
CC[C@H](C)[C@H](N)C(=O)N[C@@H](CC(N)=O)C(=O)N[C@@H](CC(C)C)C(=O)N[C@@H](CCCCN)C(=O)N[C@@H](C)C(=O)N[C@@H](CC(C)C)C(=O)N[C@@H](C)C(=O)N[C@@H](C)C(=O)N[C@@H](CC(C)C)C(=O)N[C@@H](C)C(=O)N[C@@H](CCC(=O)O)C(=O)N[C@@H](CCCCN)C(=O)N[C@H](C(=O)N[C@@H](CC(C)C)C(N)=O)[C@@H](C)CC [E11] | 5.959% | 19.6815%
CC[C@H](C)[C@H](N)C(=O)N[C@@H](CC(N)=O)C(=O)N[C@@H](CC(C)C)C(=O)N[C@@H](Cc1ccc(O)cc1)C(=O)N[C@@H](C)C(=O)N[C@@H](CC(C)C)C(=O)N[C@@H](C)C(=O)N[C@@H](C)C(=O)N[C@@H](CC(C)C)C(=O)N[C@@H](C)C(=O)N[C@@H](CCCCN)C(=O)N[C@@H](CCCCN)C(=O)N[C@H](C(=O)N[C@@H](CC(C)C)C(N)=O)[C@@H](C)CC [Y4] | 3.789% | 34.4143%
CC[C@H](C)[C@H](N)C(=O)N[C@@H](CC(N)=O)C(=O)N[C@@H](CC(C)C)C(=O)N[C@@H](CCCCN)C(=O)N[C@@H](C)C(=O)N[C@@H](CC(C)C)C(=O)N[C@@H](C)C(=O)N[C@@H](C)C(=O)N[C@@H](CC(C)C)C(=O)N[C@@H](C)C(=O)N[C@@H](CCCCN)C(=O)N[C@@H](CCCCN)C(=O)N[C@H](C(=O)N[C@@H](Cc1c[nH]c2ccccc12)C(N)=O)[C@@H](C)CC [W14] | 13.9862% | 56.1495%
CC[C@H](C)[C@H](NC(=O)[C@H](CCCCN)NC(=O)[C@H](CCCCN)NC(=O)[C@H](C)NC(=O)[C@H](CC(C)C)NC(=O)[C@H](C)NC(=O)[C@H](C)NC(=O)[C@H](CC(C)C)NC(=O)[C@H](C)NC(=O)[C@H](CCCCN)NC(=O)[C@H](CC(C)C)NC(=O)[C@H](CC(N)=O)NC(=O)[C@@H]1CCCN1)C(=O)N[C@@H](CC(C)C)C(N)=O [P1] | -0.6303% | 43.0723%
CC[C@H](C)[C@H](N)C(=O)N[C@@H](CC(N)=O)C(=O)N[C@@H](CC(C)C)C(=O)N[C@@H](CCCCN)C(=O)N[C@@H](C)C(=O)N[C@@H](CC(C)C)C(=O)N[C@@H](C)C(=O)N[C@@H](C)C(=O)N[C@@H](CC(C)C)C(=O)N[C@@H](CCC(N)=O)C(=O)N[C@@H](CCCCN)C(=O)N[C@@H](CCCCN)C(=O)N[C@H](C(=O)N[C@@H](CC(C)C)C(N)=O)[C@@H](C)CC [Q10] | 12.3938% | 6.186%
CC[C@H](C)[C@H](N)C(=O)N[C@@H](CC(N)=O)C(=O)N[C@@H](CC(C)C)C(=O)N[C@@H](CCCCN)C(=O)N[C@@H](C)C(=O)N[C@@H](CC(C)C)C(=O)N[C@@H](C)C(=O)N[C@@H](C)C(=O)N[C@@H](CC(C)C)C(=O)N[C@@H](C)C(=O)N[C@@H](CCCCN)C(=O)N[C@@H](CCCCN)C(=O)N[C@H](C(=O)NCC(N)=O)[C@@H](C)CC [G14] | 3.069% | 28.3643%
